Results reported in publication PMC9042912, “T cell receptor and IL-2 signaling strength control memory CD8^+ T cell functional fitness via chromatin remodeling” (Nature Communications, 2022).
No end group written: not given here.

Target: T1, H2-K^b (Mus musculus, UniProt P01901)
T1 construct: RMA-S cells were added per well to a 96-well flat-bottom plate and incubated at 30 °C overnight; endogenous in cells; host or cells: RMA-S cells (TAP-deficient), obtained from Dr. Steve Porcelli
T1 sequence (P01901 22-369): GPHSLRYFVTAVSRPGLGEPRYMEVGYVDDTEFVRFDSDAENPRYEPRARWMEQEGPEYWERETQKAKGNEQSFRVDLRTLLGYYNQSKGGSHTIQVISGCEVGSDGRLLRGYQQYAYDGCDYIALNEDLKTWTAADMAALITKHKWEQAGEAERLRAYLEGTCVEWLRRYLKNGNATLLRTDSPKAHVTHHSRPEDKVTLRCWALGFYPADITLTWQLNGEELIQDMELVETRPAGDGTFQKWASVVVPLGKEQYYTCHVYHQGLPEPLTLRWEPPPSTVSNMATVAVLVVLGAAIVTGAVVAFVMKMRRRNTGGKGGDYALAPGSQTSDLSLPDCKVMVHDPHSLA
T1 sequence (P01887 21-119 partner): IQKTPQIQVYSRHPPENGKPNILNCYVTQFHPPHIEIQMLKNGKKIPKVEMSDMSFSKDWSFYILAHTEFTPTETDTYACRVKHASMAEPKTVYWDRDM
Test: cell-based

SIINFEKA [A8]
Kd: 0.351 µM
